ChEMBL document CHEMBL1139665, “Synthesis, X-ray crystallographic analysis, and antitumor activity of N-(benzothiazole-2-yl)-1-(fluorophenyl)-O,O-dialkyl-alpha-aminophosphonates” (2006)

Legend:
A-431 [1] = test: Antiproliferative activity against A431 cells at 5 uM by MTT assay after 72 hrs; format: functional; conditions: Homo sapiens, A-431, 72 h
A-375 [2] = test: Antiproliferative activity against A375 cells at 10 uM by MTT assay after 72 hrs; format: functional; conditions: Homo sapiens, A-375, 72 h
A-375 [3] = test: Antiproliferative activity against A375 cells at 5 uM by MTT assay after 72 hrs; format: functional; conditions: Homo sapiens, A-375, 72 h
[4] = Antiproliferative activity against Bcap37 cells at 1 uM by MTT assay after 72 hrs; format: functional, Homo sapiens
A-431 [5] = test: Antiproliferative activity against A431 cells at 1 uM by MTT assay after 72 hrs; format: functional; conditions: Homo sapiens, A-431, 72 h
A-431 [6] = test: Antiproliferative activity against A431 cells at 10 uM by MTT assay after 72 hrs; format: functional; conditions: Homo sapiens, A-431, 72 h
PC-3 [7] = test: Antiproliferative activity against PC3 cells at 1 uM by MTT assay after 72 hrs; format: functional; conditions: Homo sapiens, PC-3, 72 h
A-375 [8] = test: Antiproliferative activity against A375 cells at 1 uM by MTT assay after 72 hrs; format: functional; conditions: Homo sapiens, A-375, 72 h
[9] = Antiproliferative activity against Bcap37 cells at 5 uM by MTT assay after 72 hrs; format: functional, Homo sapiens
PC-3 [10] = test: Antiproliferative activity against PC3 cells at 10 uM by MTT assay after 72 hrs; format: functional; conditions: Homo sapiens, PC-3, 72 h
PC-3 [11] = test: Antiproliferative activity against PC3 cells at 5 uM by MTT assay after 72 hrs; format: functional; conditions: Homo sapiens, PC-3, 72 h
[12] = Antiproliferative activity against Bcap37 cells at 10 uM by MTT assay after 72 hrs; format: functional, Homo sapiens

| Compound | inhibition at 5 µM (A-431 [1]) [%] | inhibition at 10 µM (A-375 [2]) [%] | inhibition at 5 µM (A-375 [3]) [%] | inhibition at 1 µM [4] [%] | inhibition at 1 µM (A-431 [5]) [%] | inhibition at 10 µM (A-431 [6]) [%] | inhibition at 1 µM (PC-3 [7]) [%] | inhibition at 1 µM (A-375 [8]) [%] | inhibition at 5 µM [9] [%] | inhibition at 10 µM (PC-3 [10]) [%] | inhibition at 5 µM (PC-3 [11]) [%] | inhibition at 10 µM [12] [%] |
| --- | --- | --- | --- | --- | --- | --- | --- | --- | --- | --- | --- | --- |
| CCCOP(=O)(OCCC)C(Nc1nc2c(C)cccc2s1)c1ccccc1F (stereo unspecified) | 27.3 | 4.3 | 4.8 | -18.9 | 15.9 | 31.7 | 21.7 | -0.2 | 0.8 | 43.3 | 29.4 | 21.7 |
| COc1ccc2nc(NC(c3ccccc3F)P(=O)(OC)OC)sc2c1 (stereo unspecified) | 7.9 | 11.4 | 10.1 | 11.9 | 1.9 | 8.64 | 21.4 | 4.3 | 17.8 | 33.3 | 26.6 | 25.1 |
| CCOP(=O)(OCC)C(Nc1nc2c(C)cccc2s1)c1ccc(C(F)(F)F)cc1 (stereo unspecified) | 2.06 | 14.2 | 1.6 | -5.2 | 0.36 | 16.9 | 12.6 | -10.2 | 9.8 | 49.3 | 13.5 | 16.7 |
| CCCCOP(=O)(OCCCC)C(Nc1nc2ccc(OC)cc2s1)c1ccccc1F (stereo unspecified) | 5.4 | 17.4 | 3.5 | 23.6 | -3.7 | 28.8 | -6.6 | -6.2 | 38.2 | 13.2 | 5.3 | 44.2 |
| CCOP(=O)(OCC)C(Nc1nc2ccc(OC)cc2s1)c1ccc(F)cc1 (stereo unspecified) | 20.9 | 34.5 | 10.9 | 10 | 11.2 | 31.2 | 32.1 | 8 | 39 | 49.5 | 41 | 49.9 |
| CCCCOP(=O)(OCCCC)C(Nc1nc2c(C)cccc2s1)c1ccc(C(F)(F)F)cc1 (stereo unspecified) | 40.8 | 31.5 | 21.6 | 0.1 | 37.7 | 57.4 | 5 | -3.2 | 9.2 | 36 | 31.6 | 20.3 |
| CCOP(=O)(OCC)C(Nc1nc2ccc(OC)cc2s1)c1ccccc1F (stereo unspecified) | 12.3 | 15.7 | 7.9 | 20.5 | 4.5 | 22.1 | 16.8 | 7.5 | 34.5 | 38.9 | 22.5 | 49.4 |
| CCCOP(=O)(OCCC)C(Nc1nc2ccc(OC)cc2s1)c1ccccc1F (stereo unspecified) | 49.2 | 23.8 | 13.9 | 21.3 | 35.3 | 58.1 | 5 | 10.3 | 25.1 | 28.7 | 15.8 | 27.1 |
| Cc1cccc2sc(NC(c3ccc(C(F)(F)F)cc3)P(=O)(OC(C)C)OC(C)C)nc12 (stereo unspecified) | 20.5 | 9.1 | 8.6 | -0.7 | 17.3 | 29.5 | 6.3 | -1.3 | 11.2 | 25.9 | 15.3 | 22.7 |
| CCCCOP(=O)(OCCCC)C(Nc1nc2c(C)cccc2s1)c1ccccc1F (stereo unspecified) | 49 | 32.1 | 25.6 | 10 | 32.1 | 72.1 | 52.1 | 11.2 | 29 | 89.1 | 86 | 38.1 |
| CCOP(=O)(OCC)C(Nc1nc2c(C)cccc2s1)c1ccccc1F (stereo unspecified) | 23.3 | 9.2 | -6.1 | 35.8 | 17.7 | 35.3 | 3.51 | -13.9 | 42.6 | 41.9 | 22.9 | 58.9 |
| COc1ccc2nc(NC(c3ccccc3F)P(=O)(OC(C)C)OC(C)C)sc2c1 (stereo unspecified) | 7.5 | 2.8 | 1.7 | 39.7 | -7.4 | 16.7 | -8.5 | -4.3 | 43.2 | 18.5 | 2.1 | 50.4 |
| COP(=O)(OC)C(Nc1nc2c(C)cccc2s1)c1ccc(C(F)(F)F)cc1 (stereo unspecified) | 26 | 20.8 | 19.2 | -13.2 | 22.1 | 47.3 | 4 | 1.8 | -0.8 | 8.9 | 4.6 | 2.5 |
